Results as given in PubChem BioAssay AID1224920 (Broad Institute, 2016).
Activity calls are given as the source filed them.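 Rule for the calls: active = IC50 no higher than ten times the top tested dose; inconclusive = flat fit with 30 to 70% inhibition, or poor fit; inactive = IC50 above ten times the top dose.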

Experiment: growth modulation of Clostridium difficile isolate – OD600, 9-point, retest, dose response (AID 1224920);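 note: plate controls were DMSO for no effect and levofloxacin control for full effect; inhibitors lower culture turbidity so OD600 falls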
Conditions: Clostridium difficile clinical isolate growth, OD600, 24 h

Row | SMILES | activity change, negative = inhibition (at 120 µM (top of the series)) | further results
1 | O=S(=O)(c1cccc(F)c1)N1CC[C@@H]2[C@@H](CO)Nc3ccc(-c4cccc(F)c4)cc3[C@@H]21 | 45.7% (inactive) | 
2 | O=C(c1ccc2c(c1)OCO2)N1C[C@@H]2N[C@H](C1)C2c1ccc(-c2ccccc2F)cc1 (stereo partly specified) |  | activity change, negative = inhibition (at 68 µM (top of the series)): 31.1% (inactive)
3 | Cc1ccccc1S(=O)(=O)N1CC[C@@H]2[C@@H](CO)Nc3ccc(-c4ccc(F)cc4)cc3[C@@H]21 | 46.1% (inactive) | 
4 | O=C(NC[C@H]1N[C@H](CO)[C@@H]1c1ccc(C2=CCCCC2)cc1)C1CCCC1 |  | activity change, negative = inhibition (at 60 µM (top of the series)): 38.1% (inactive)
5 | Cc1ccccc1-c1ccc([C@H]2[C@@H](CO)N3CCCCN(S(=O)(=O)c4ccc(F)cc4)C[C@H]23)cc1 | 3.42% (inactive) | 
6 | C/C=C/c1ccc(C2[C@@H]3CN(C(=O)Nc4ccc(F)cc4)C[C@H]2N3)cc1 (stereo partly specified) |  | activity change, negative = inhibition (at 68 µM (top of the series)): 49.5% (inactive)
7 | Cc1ccc(-c2ccc([C@@H]3[C@@H](CO)N4CCCCN(C(=O)Nc5cccc(F)c5)C[C@@H]34)cc2)cc1 |  | activity change, negative = inhibition (at 135 µM (top of the series)): 15.8% (inactive)
8 | CC(=O)N(C)C[C@H]1[C@@H](c2ccc(-c3ccccc3F)cc2)[C@@H](CO)N1C(C)=O | -10.3% (inactive) | 
9 | C/C=C/c1ccc([C@H]2[C@@H](CNC(C)C)N(c3nc(CC)cs3)[C@H]2CO)cc1 |  | activity change, negative = inhibition (at 135 µM (top of the series)): 32.5% (inactive)
10 | CC(=O)N1[C@H](CO)[C@@H](c2ccccc2)[C@@H]1CN(C)C(=O)CN1CCOCC1 | -9.56% (inactive) | 
11 | N#Cc1cccc(-c2ccc3c(c2)[C@@H]2[C@@H](CCN2Cc2ccc4c(c2)OCO4)[C@@H](CO)N3)c1 |  | activity change, negative = inhibition (at 35 µM (top of the series)): -4.09% (inactive)
12 | N#Cc1cccc(-c2ccc(C3[C@H]4CNC[C@@H]3N4C(=O)Nc3ccc(F)cc3)cc2)c1 (stereo partly specified) |  | activity change, negative = inhibition (at 68 µM (top of the series)): 21.6% (inactive)
13 | CC(=O)NC[C@H]1[C@H](c2ccc(-c3cccc(F)c3)cc2)[C@@H](CO)N1C(C)=O | -18.5% (inactive) | 
14 | N#C[C@@H]1[C@@H](c2ccccc2-c2cccc(F)c2)[C@H](CO)N1C(=O)NC1CCCCC1 | 9.02% (inactive) | 
15 | COc1ccc2c3c(n(C)c2c1)[C@H](CO)N(C)CC31CN(C(=O)NC(C)C)C1 | 0.365% (inactive) | 
16 | O=S(=O)(c1ccc(F)cc1)N1CCCCN2[C@@H](CO)[C@@H](c3ccc(-c4ccccc4)cc3)[C@@H]2C1 | 0.278% (inactive) | 
17 | CC(=O)NC[C@H]1[C@@H](c2ccc(-c3cccc(F)c3)cc2)[C@@H](CO)N1C(C)=O |  | activity change, negative = inhibition (at 135 µM (top of the series)): -7.05% (inactive)
18 | Cc1noc(C)c1NC(=O)N(C)C[C@H]1Oc2ccc(NC(=O)Nc3ccc4c(c3)OCO4)cc2CC(=O)N([C@H](C)CO)C[C@@H]1C | -2.04% (inactive) | 
19 | CCc1nc(N2[C@H](C#N)[C@@H](c3ccccc3-c3ccccc3F)[C@@H]2CO)sc1C | 57.6% (inactive) | 
20 | Cc1ccc(-c2ccccc2[C@@H]2[C@@H](C#N)N(C(=O)NC3CCCC3)[C@H]2CO)cc1 |  | activity change, negative = inhibition (at 135 µM (top of the series)): 25% (inactive)
21 | O=C(Nc1cccc(F)c1)N1CC(=O)N2[C@H](C1)[C@H](c1ccc(-c3cccc(F)c3)cc1)[C@@H]2CO |  | activity change, negative = inhibition (at 135 µM (top of the series)): 37.9% (inactive)
22 | CN(C)C(=O)c1cccc(-c2ccc([C@@H]3[C@H]4CN(C(=O)C5CCCCC5)CC(=O)N4[C@H]3CO)cc2)c1 | -5.65% (inactive) | 

Row | SMILES | activity change, negative = inhibition (at 120 µM (top of the series)) | further results
23 | Cc1ccc(-c2ccc([C@@H]3[C@H]4CN(C(=O)Nc5cccc(F)c5)CCCCN4[C@H]3CO)cc2)cc1 | 6.7% (inactive) | 
24 | COc1ccc(NC(=O)N2CC[C@H]3[C@@H]2c2cc(Br)ccc2N(C)[C@H]3CO)cc1 |  | activity change, negative = inhibition (at 135 µM (top of the series)): 4.83% (inactive)
25 | CC(=O)N(C)C[C@@H]1[C@@H](c2ccc(-c3ccccc3F)cc2)[C@H](CO)N1C(C)=O | -14.3% (inactive) | 
26 | COc1ccc2c3c(n(C)c2c1)[C@H](CO)N(C(=O)c1ccncc1)CC31CN(C)C1 | 3.29% (inactive) | 
27 | Cc1ccccc1-c1ccc(C2[C@@H]3CN(C(=O)C4CCCC4)C[C@H]2N3)cc1 (stereo partly specified) |  | activity change, negative = inhibition (at 60 µM (top of the series)): 34.2% (inactive)
28 | CC(=O)N(C)C[C@@H]1[C@@H](c2ccc(-c3ccccc3F)cc2)[C@@H](CO)N1C(C)=O |  | activity change, negative = inhibition (at 135 µM (top of the series)): -15.6% (inactive)
29 | O=C(Nc1ccccc1F)N1C[C@@H]2N[C@H](C1)C2c1ccc(-c2ccccc2)cc1 (stereo partly specified) | 36.7% (inactive) | 
30 | COc1ccccc1S(=O)(=O)N1CC[C@@H]2[C@@H](CO)Nc3ccc(-c4ccc(F)cc4)cc3[C@@H]21 |  | activity change, negative = inhibition (at 135 µM (top of the series)): 47% (inactive)
31 | CN1c2ccc(Br)cc2[C@H]2[C@H](CCN2C(=O)Nc2ccc(F)cc2)[C@@H]1CO | 55.4% (inactive) | 
32 | O=C(C1CCCCC1)N1CC(=O)N2[C@@H](CO)[C@H](c3ccc(C#CCc4ccccc4)cc3)[C@@H]2C1 |  | activity change, negative = inhibition (at 60 µM (top of the series)): 21.9% (inactive)
33 | COc1ccc2c3c(n(C)c2c1)[C@@H](CO)N(C(=O)C1CC1)CC31CN(C(=O)Nc2cccc(F)c2)C1 | 18.8% (inactive) | 
34 | CC(=O)N(C)C[C@H]1[C@H](c2ccc(-c3ccccc3F)cc2)[C@H](CO)N1C(C)=O | -3.85% (inactive) | 
35 | Cc1cccc(-c2ccc(C3[C@@H]4CN(C(=O)C5CCC5)C[C@H]3N4)cc2)c1 (stereo partly specified) |  | activity change, negative = inhibition (at 60 µM (top of the series)): 39.3% (inactive)
36 | C/C=C/c1ccc([C@H]2[C@@H](CO)N(C(=O)CC)[C@H]2CNC(=O)CC)cc1 |  | activity change, negative = inhibition (at 135 µM (top of the series)): -4.24% (inactive)
37 | C/C=C/c1ccc([C@@H]2[C@H](CO)N(C(=O)CC)[C@H]2CNC(=O)CC)cc1 | -7.3% (inactive) | 
38 | COc1ccc(NC(=O)N2CC[C@@H]3[C@H]2c2cc(Br)ccc2N(C)[C@@H]3CO)cc1 |  | activity change, negative = inhibition (at 135 µM (top of the series)): 17.8% (inactive)
39 | C/C=C/c1ccc([C@H]2[C@@H](CNC(=O)c3ccccn3)N(C(C)=O)[C@H]2CO)cc1 |  | activity change, negative = inhibition (at 135 µM (top of the series)): -7.58% (inactive)
40 | CN(C)C(=O)c1cccc(-c2ccc(C3[C@H]4CNC[C@@H]3N4S(=O)(=O)c3ccc(Cl)cc3)cc2)c1 (stereo partly specified) |  | activity change, negative = inhibition (at 135 µM (top of the series)): 10.5% (inactive)
41 | CN(C)C(=O)C[C@H]1C=C[C@H](NC(=O)C2CCOCC2)[C@H](CO)O1 | -14.4% (inactive) | 
42 | O=C(Nc1ccccc1)N1CCCCN2[C@H](CO)[C@H](c3ccc(-c4ccccc4F)cc3)[C@H]2C1 |  | activity change, negative = inhibition (at 30 µM (top of the series)): 38.6% (inactive)
43 | O=C(NC[C@H]1N[C@H](CO)[C@@H]1c1ccc(C2=CCCC2)cc1)C1CCCCC1 |  | activity change, negative = inhibition (at 60 µM (top of the series)): 36.2% (inactive)
44 | CCCNC(=O)N1CC[C@H]2[C@@H]1c1cc(C#Cc3ccccc3)ccc1N(C)[C@H]2CO |  | activity change, negative = inhibition (at 60 µM (top of the series)): 49.3% (inactive)

Row | SMILES | activity change, negative = inhibition (at 120 µM (top of the series)) | further results
45 | C/C=C/c1ccc([C@H]2[C@@H](CO)N(C(=O)CC)[C@@H]2CNC(=O)CC)cc1 |  | activity change, negative = inhibition (at 135 µM (top of the series)): -8.82% (inactive)
46 | COc1ccc2c3c(n(C)c2c1)[C@H](CO)N(C(=O)Nc1ccc(F)cc1)CC31CCN(C(=O)CN2CCOCC2)CC1 |  | activity change, negative = inhibition (at 135 µM (top of the series)): -1.31% (inactive)
47 | COc1cccc(-c2ccc(C3[C@@H]4CN(C(=O)C5CCCCC5)C[C@H]3N4)cc2)c1 (stereo partly specified) |  | activity change, negative = inhibition (at 60 µM (top of the series)): 34.7% (inactive)
48 | CN(C)C(=O)C[C@@H]1CC[C@@H]2[C@@H](COc3ccc(NC(=O)C4CCC4)cc3C(=O)N2C)O1 | 0.255% (inactive) | 
49 | O=C(C[C@@H]1CC[C@@H]2[C@H](COC[C@@H](O)CN2S(=O)(=O)c2ccccc2)O1)NCc1ccc(-c2ccccc2)cc1 | 43.8% (inactive) | 
50 | CC(=O)N1[C@@H](CO)[C@@H](c2ccccc2)[C@@H]1CN(C)C(=O)CN1CCOCC1 | -9.07% (inactive) | 
51 | CN1c2ccc(-c3cccc(F)c3)cc2[C@@H]2[C@@H](CCN2C(=O)Cc2ccccc2)[C@@H]1CO |  | activity change, negative = inhibition (at 135 µM (top of the series)): 52.8% (inactive)
52 | C/C=C/c1ccc(C2[C@@H]3CN(S(=O)(=O)c4ccc(F)cc4)C[C@H]2N3)cc1 (stereo partly specified) |  | activity change, negative = inhibition (at 60 µM (top of the series)): 42.1% (inactive)
53 | CCCNC(=O)N1[C@H](C#N)[C@@H](c2ccccc2-c2ccc(C)cc2)[C@@H]1CO | 17% (inactive) | 
54 | COc1ccc(-c2ccccc2[C@@H]2[C@@H](C#N)N(C(=O)NC3CCCCC3)[C@H]2CO)cc1 | 9.48% (inactive) | 
55 | COc1ccc(NC(=O)N2[C@@H]3CNC[C@H]2C3c2ccc(-c3ccc(F)cc3)cc2)cc1 (stereo partly specified) |  | activity change, negative = inhibition (at 60 µM (top of the series)): 39.8% (inactive)
56 | N#C[C@@H]1[C@H](c2ccccc2-c2cccc(F)c2)[C@H](CO)N1C(=O)Cc1cccnc1 |  | activity change, negative = inhibition (at 135 µM (top of the series)): 9.55% (inactive)
57 | O=S(=O)(c1ccc(F)cc1)N1CCCCN2[C@H](CO)[C@H](c3ccc(-c4ccccc4)cc3)[C@H]2C1 | 39.2% (inactive) | 
58 | CN1[C@@H]2c3ccc(/C=C/c4ccccc4)c(=O)n3C[C@H]1[C@H](CO)[C@H]2C(=O)NC1CCCC1 | 4.99% (inactive) | 
59 | O=C(Nc1ccc(F)cc1)N1CCCCN2[C@H](CO)[C@@H](c3ccc(-c4ccccc4F)cc3)[C@@H]2C1 |  | activity change, negative = inhibition (at 60 µM (top of the series)): 53.6% (inactive)
60 | O=S(=O)(c1ccc(F)cc1)N1CCCCN2[C@H](CO)[C@H](c3ccc(C#CC4CCCC4)cc3)[C@H]2C1 | -16.2% (inactive) | 
61 | O=C(C1CCCC1)N1C[C@@H]2N[C@H](C1)C2c1ccc(-c2ccccc2F)cc1 (stereo partly specified) |  | activity change, negative = inhibition (at 60 µM (top of the series)): 51.8% (inactive)
62 | CC(=O)N(C)C[C@H]1[C@H](c2ccc(-c3ccccc3F)cc2)[C@@H](CO)N1C(C)=O | -11.8% (inactive) | 
63 | C[C@@H]1CN([C@@H](C)CO)C(=O)Cc2cc(NS(=O)(=O)c3ccccc3)ccc2O[C@@H]1CN(C)Cc1ccc(Oc2ccccc2)cc1 | 39.5% (inactive) | 
64 | C[C@H](CO)N1C[C@H](C)[C@H](CN(C)C(=O)Nc2ccc3c(c2)OCO3)Oc2c(NC(=O)Nc3ccc(C(F)(F)F)cc3)cccc2C1=O | 49.4% (inactive) | 
65 | CN1c2ccc(-c3cccc(F)c3)cc2[C@H]2[C@H](CCN2C(=O)C2CCCC2)[C@H]1CO | 40.6% (inactive) | 
66 | Cc1ccc(-c2ccc([C@@H]3[C@@H](CO)N4CCCCN(C(=O)Nc5ccccc5)C[C@@H]34)cc2)cc1 | 27.7% (inactive) | 
